Data: patent US9840513B2 (AbbVie S.à.r.l., priority 2015, dated 2017)

Biological target: T1, F508delCFTR cell surface expression in CFBE41o-F508delCFTR-HRP cells (Homo sapiens, UniProt P13569, DEL508-508)
T1 construct: fused on or other part: Horseradish peroxidase (HRP) reporter inserted in the fourth exofacial (extracellular) loop of CFTR; expression is doxycycline-inducible
Assay: Cell Surface Expression-Horse Radish Peroxidase (CSE-HRP) Assay
Type: cell-based
Conditions: for EC50: CFBE41o-F508delCFTR-HRP cells, 18-24 hours at 33° C., 8-point curve, highest concentration 20 μM; for Maximum % activity (%): maximum at any tested concentration, normalized to on-plate positive control (3 μM)
Text: Cell Surface Expression-Horse Radish Peroxidase (CSE-HRP) Assay:
A cellular assay for measuring the F508delCFTR cell surface expression after correction with test compounds was developed in human lung derived epithelial cell line (CFBE41o-) (Veit G et al, (2012) Mol Biol Cell. 23(21): 4188-4202). This was achieved by expressing the F508delCFTR mutation along with a horseradish peroxidase (HRP) in the fourth exofacial loop and then measuring the HRP activity using luminescence readout from these cells, CFBE41o-F508delCFTR-HRP, that were incubated overnight with the test corrector compounds. Briefly, for this primary assay, the CFBE41o-F508delCFTR-HRP cells were plated in 384-well plates (Greiner Bio-one; Cat 781080) at 4,000 cells/well along with 0.5 μg/mL doxycycline to induce the F508delCFTR-HRP expression and further incubated at 37° C., 5% CO2 for 72 hours. The test compounds were then added at the required concentrations and further incubated for 18-24 hours at 33° C. The highest concentration tested was 20 μM with an 8-point concentration response curve using a 3-fold dilution. Three replicate plates were run to determine one EC50. All plates contained negative controls (dimethyl sulfoxide, DMSO) and positive controls (3 μM of 3-[(2R,4R)-4-({[1-(2,2-difluoro-1,3-benzodioxol-5-yl)cyclopropyl]carbonyl}amino)-7-methoxy-3,4-dihydro-2H-chromen-2-yl]benzoic acid) as well as on-plate concentration response of the positive control. Post incubation, the plates were washed 5× times with Dulbecco's phosphate buffered saline (DPBS), followed by the addition of the HRP substrate, luminol (50 μL), and measuring the HRP activity using luminescence readout on EnVision® Multilabel Plate Reader (Perkin Elmer; product number 2104-0010). The raw counts from the experiment are analyzed using Accelrys® Assay Explorer v3.3.
Z′ greater than 0.5 was used as passing quality control criteria for the plates.
The Z′ is defined as: 1−[3*SDPositive Control+3*SDNegative Control/Absolute(MeanPositive Control−MeanNegative Control)] wherein “SD” is standard deviation.
The % activity measured at each of the 8 test concentrations of the test compound was normalized to the on-plate positive control using the following formula: % activity=[(test compound response DMSO response)/(positive control response DMSO response)]*100
The maximum % activity achieved for the test compound at any tested concentration is presented in Table 1 along with the EC50 calculated using the following general sigmoidal curve with variable Hill slope equation (described as Model 42 in the Accelrys® Assay Explorer v3.3 software): y=(a−d)/(1+(x/c)^b)+d
General sigmoidal curve with concentration, response, top, bottom, EC50 and Hill slope.
This model describes a sigmoidal curve with an adjustable baseline, a. The equation can be used to fit curves where response is either increasing or decreasing with respect to the independent variable, “x”.
“x” is a concentration of drug under test.
“a” is the maximum response, and “d” is the minimum response
“c” is the inflection point (EC50) for the curve. That is, “y” is halfway between the lower and upper asymptotes when x=c.
“b” is the slope-factor or Hill coefficient. The sign of b is positive when the response increases with increasing dose and is negative when the response decreases with increasing dose (inhibition).

T1 sequence (P13569 with tags, fused parts or gaps DEL508-508 limits assumed): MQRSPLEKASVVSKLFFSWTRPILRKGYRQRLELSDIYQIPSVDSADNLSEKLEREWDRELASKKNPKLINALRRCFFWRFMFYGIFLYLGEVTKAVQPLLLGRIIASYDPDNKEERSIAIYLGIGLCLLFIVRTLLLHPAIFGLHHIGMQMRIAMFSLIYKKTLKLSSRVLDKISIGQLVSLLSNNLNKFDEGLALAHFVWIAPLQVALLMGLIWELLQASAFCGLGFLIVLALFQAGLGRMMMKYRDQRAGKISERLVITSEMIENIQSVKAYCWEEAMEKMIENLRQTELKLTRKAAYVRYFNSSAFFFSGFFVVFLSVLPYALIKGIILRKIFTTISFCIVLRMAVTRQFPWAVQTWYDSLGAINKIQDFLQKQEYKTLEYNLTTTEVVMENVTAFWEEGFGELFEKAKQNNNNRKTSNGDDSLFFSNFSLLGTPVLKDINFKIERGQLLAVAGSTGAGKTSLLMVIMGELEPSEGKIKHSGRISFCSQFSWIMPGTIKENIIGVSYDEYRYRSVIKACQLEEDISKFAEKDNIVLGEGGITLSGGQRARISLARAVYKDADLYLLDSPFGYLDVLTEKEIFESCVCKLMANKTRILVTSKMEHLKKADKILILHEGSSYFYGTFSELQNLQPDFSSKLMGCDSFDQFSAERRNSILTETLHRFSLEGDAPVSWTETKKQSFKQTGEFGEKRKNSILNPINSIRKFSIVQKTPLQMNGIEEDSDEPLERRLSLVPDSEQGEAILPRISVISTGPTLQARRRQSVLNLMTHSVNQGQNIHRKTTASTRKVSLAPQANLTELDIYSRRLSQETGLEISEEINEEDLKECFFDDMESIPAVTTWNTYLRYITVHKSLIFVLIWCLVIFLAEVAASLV
T1 sequence (P13569 919-1480 limits assumed, stated change not applied): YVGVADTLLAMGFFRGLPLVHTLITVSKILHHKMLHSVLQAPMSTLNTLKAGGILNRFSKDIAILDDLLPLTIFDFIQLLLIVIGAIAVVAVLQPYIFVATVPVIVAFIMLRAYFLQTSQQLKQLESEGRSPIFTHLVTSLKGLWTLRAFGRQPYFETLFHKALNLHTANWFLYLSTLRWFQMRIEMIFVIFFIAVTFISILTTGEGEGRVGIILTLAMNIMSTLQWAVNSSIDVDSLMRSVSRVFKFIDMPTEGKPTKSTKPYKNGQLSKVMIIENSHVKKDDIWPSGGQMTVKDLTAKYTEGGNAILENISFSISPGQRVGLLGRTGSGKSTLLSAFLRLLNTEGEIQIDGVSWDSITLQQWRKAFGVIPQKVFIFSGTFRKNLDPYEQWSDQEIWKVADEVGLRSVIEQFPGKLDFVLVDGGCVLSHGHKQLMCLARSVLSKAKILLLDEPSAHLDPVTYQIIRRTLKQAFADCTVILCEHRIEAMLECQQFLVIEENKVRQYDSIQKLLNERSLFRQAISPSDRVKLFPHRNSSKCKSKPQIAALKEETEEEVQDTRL

| EC50 [µM] | Maximum % activity (%) | Compound |
| --- | --- | --- |
| 0.96 | 77 | COC(=O)c1cccc([C@H]2C[C@@H](NC(=O)C3(C)CCc4cc5c(cc43)OC(F)(F)O5)c3ccc(OC)cc3O2)c1 (stereo partly drawn) [Example 52, methyl 3-{(2R,4R)-4-[(2,2-difluoro-5-methyl-6,7-dihydro-2H,5H-indeno[5,6-d][1,3]dioxole-5-carbonyl)amino]-7-methoxy-3,4-dihydro-2H-1-benzopyran-2-yl}benzoate] |
| > 20 | 1 | CC1(C(=O)Nc2nnc(-c3ccc(C(=O)O)cc3)s2)COc2cc3c(cc21)OC(F)(F)O3 (stereo not shown) [Example 53, 4-{5-[(2,2-difluoro-7-methyl-6,7-dihydro-2H-furo[2,3-f][1,3]benzodioxole-7-carbonyl)amino]-1,3,4-thiadiazol-2-yl}benzoic acid] |
| 6.45 | 151 | CC1(C(=O)Nc2cccc(-c3ccccc3)c2)COc2cc3c(cc21)OC(F)(F)O3 (stereo not shown) [Example 54, N-([1,1′-biphenyl]-3-yl)-2,2-difluoro-7-methyl-6,7-dihydro-2H-furo[2,3-f][1,3]benzodioxole-7-carboxamide] |
| 6.62 | 159 | CC1(C(=O)Nc2cccc(-c3ccccc3)n2)COc2cc3c(cc21)OC(F)(F)O3 (stereo not shown) [Example 55, 2,2-difluoro-7-methyl-N-(6-phenylpyridin-2-yl)-6,7-dihydro-2H-furo[2,3-f][1,3]benzodioxole-7-carboxamide] |
| 0.63 | 152 | Cc1ccc(NC(=O)C2(C)COc3cc4c(cc32)OC(F)(F)O4)cc1-c1cccc(C(=O)O)c1 (stereo not shown) [Example 60, 5′-[(2,2-difluoro-7-methyl-6,7-dihydro-2H-furo[2,3-f][1,3]benzodioxole-7-carbonyl)amino]-2′-methyl[1,1′-biphenyl]-3-carboxylic acid] |
| > 20 | 8 | CC1(C(=O)Nc2ccc(N3CC(C(=O)O)C3)cc2)COc2cc3c(cc21)OC(F)(F)O3 (stereo not shown) [Example 61, 1-{4-[(2,2-difluoro-7-methyl-6,7-dihydro-2H-furo[2,3-f][1,3]benzodioxole-7-carbonyl)amino]phenyl}azetidine-3-carboxylic acid] |
| > 20 | 12 | Cc1c(C(=O)O)ncn1-c1ccc(C(F)(F)F)cc1NC(=O)C1(C)COc2cc3c(cc21)OC(F)(F)O3 (stereo not shown) [Example 62, 1-{2-[(2,2-difluoro-7-methyl-6,7-dihydro-2H-furo[2,3-f][1,3]benzodioxole-7-carbonyl)amino]-4-(trifluoromethyl)phenyl}-5-methyl-1H-imidazole-4-carboxylic acid] |
| 8.64 | 41 | CC1(C(=O)Nc2nc(-c3ccc(C#N)cc3)cs2)COc2cc3c(cc21)OC(F)(F)O3 (stereo not shown) [Example 63, N-[4-(4-cyanophenyl)-1,3-thiazol-2-yl]-2,2-difluoro-7-methyl-6,7-dihydro-2H-furo[2,3-f][1,3]benzodioxole-7-carboxamide] |
| 7.29 | 46 | COC(=O)c1ccc(-c2csc(NC(=O)C3(C)COc4cc5c(cc43)OC(F)(F)O5)n2)cc1 (stereo not shown) [Example 64, methyl 4-{2-[(2,2-difluoro-7-methyl-6,7-dihydro-2H-furo[2,3-f][1,3]benzodioxole-7-carbonyl)amino]-1,3-thiazol-4-yl}benzoate] |
| > 20 | 1 | CC1(C(=O)Nc2cccc(C(=O)NC[C@@H](O)CO)n2)COc2cc3c(cc21)OC(F)(F)O3 (stereo partly drawn) [Example 65, 6-[(2,2-difluoro-7-methyl-6,7-dihydro-2H-furo[2,3-f][1,3]benzodioxole-7-carbonyl)amino]-N-[(2R)-2,3-dihydroxypropyl]pyridine-2-carboxamide] |
| 4.11 | 160 | COC(=O)c1ccc(-c2cccc(NC(=O)C3(C)COc4cc5c(cc43)OC(F)(F)O5)c2)cc1 (stereo not shown) [Example 66, methyl 3′-[(2,2-difluoro-7-methyl-6,7-dihydro-2H-furo[2,3-f][1,3]benzodioxole-7-carbonyl)amino][1,1′-biphenyl]-4-carboxylate] |
| 8.39 | 70 | CC1(C(=O)Nc2cccc(F)n2)COc2cc3c(cc21)OC(F)(F)O3 (stereo not shown) [Example 67, 2,2-difluoro-N-(6-fluoropyridin-2-yl)-7-methyl-6,7-dihydro-2H-furo[2,3-f][1,3]benzodioxole-7-carboxamide] |
| 4.47 | 44 | CC1(C(=O)Nc2nc(-c3ccc(C(=O)O)cc3)cs2)COc2cc3c(cc21)OC(F)(F)O3 (stereo not shown) [Example 68, 4-{2-[(2,2-difluoro-7-methyl-6,7-dihydro-2H-furo[2,3-f][1,3]benzodioxole-7-carbonyl)amino]-1,3-thiazol-4-yl}benzoic acid] |
| 1.39 | 183 | CC1(C(=O)Nc2cccc(-c3ccc(C(=O)O)cc3)c2)COc2cc3c(cc21)OC(F)(F)O3 (stereo not shown) [Example 69, 3′-[(2,2-difluoro-7-methyl-6,7-dihydro-2H-furo[2,3-f][1,3]benzodioxole-7-carbonyl)amino][1,1′-biphenyl]-4-carboxylic acid] |
| 1.3 | 116 | COC(=O)C1CCN(c2cccc(NC(=O)C3(C)COc4cc5c(cc43)OC(F)(F)O5)n2)CC1 (stereo not shown) [Example 70, methyl 1-{6-[(2,2-difluoro-7-methyl-6,7-dihydro-2H-furo[2,3-f][1,3]benzodioxole-7-carbonyl)amino]pyridin-2-yl}piperidine-4-carboxylate] |
| 1.23 | 128 | CC1(C(=O)Nc2cccc(N3CCC(C(=O)O)CC3)n2)COc2cc3c(cc21)OC(F)(F)O3 (stereo not shown) [Example 71, 1-{6-[(2,2-difluoro-7-methyl-6,7-dihydro-2H-furo[2,3-f][1,3]benzodioxole-7-carbonyl)amino]pyridin-2-yl}piperidine-4-carboxylic acid] |
| 9.2 | 28 | C[C@]1(C(=O)Nc2ccc(N3CCC(O)C3)nc2)COc2cc3c(cc21)OC(F)(F)O3 (stereo partly drawn) [Example 72, (7R)-2,2-difluoro-N-[6-(3-hydroxypyrrolidin-1-yl)pyridin-3-yl]-7-methyl-6,7-dihydro-2H-furo[2,3-f][1,3]benzodioxole-7-carboxamide] |
| 2.65 | 117 | C[C@]1(C(=O)Nc2cccc(-c3cccc(C(=O)O)c3)n2)COc2cc3c(cc21)OC(F)(F)O3 [Example 73, 3-(6-{[(7R)-2,2-difluoro-7-methyl-6,7-dihydro-2H-furo[2,3-f][1,3]benzodioxole-7-carbonyl]amino}pyridin-2-yl)benzoic acid] |
| 0.7 | 105 | Cc1ccc(NC(=O)C2(C)COc3cc4c(cc32)OC(F)(F)O4)nc1-c1cccc(C(N)=O)c1 (stereo not shown) [Example 74, N-[6-(3-carbamoylphenyl)-5-methylpyridin-2-yl]-2,2-difluoro-7-methyl-6,7-dihydro-2H-furo[2,3-f][1,3]benzodioxole-7-carboxamide] |

| Compound | EC50 [µM] | Maximum % activity (%) |
| --- | --- | --- |
| C[C@]1(C(=O)N[C@@H]2C[C@H](c3ccc(C(=O)O)cc3)Oc3ccccc32)CCc2cc3c(cc21)OC(F)(F)O3 [Example 59, 4-[(2R,4R)-4-{[(5S)-2,2-difluoro-5-methyl-6,7-dihydro-211,51-indeno[5,6-d][1,3]dioxole-5-carbonyl]amino}-3,4-dihydro-2H-1-benzopyran-2-yl]benzoic acid] | 2.75 | 50 |
